Experimental data reported in US20260144805A1, “CANNABIDIOL COMPOSITIONS FOR USE IN THE TREATMENT OF NEURODEGENERATIVE AND NEUROLOGICAL DISORDERS” (JAZZ PHARMACEUTICALS RESEARCH UK LIMITED, priority 2022, published 2026).

Assays:
Assay type in all cases: in vivo
[1] = test system: rat model of essential tremor; experiment: Harmaline rat model of essential tremor, observed tremor score (Example 4); parameters: key to Observed tremor score, significance vs harmaline + vehicle: ns = not significant; *, **, ***, **** = statistical significance at p < 0.05, 0.01, 0.001, 0.0001 respectively; *, **, ***, **** = statistical significance at p < 0.05, 0.01, 0.001, 0.0001 respectively; *, **, ***, **** = statistical significance at p < 0.05, 0.01, 0.001, 0.0001 respectively; *, **, ***, **** = statistical significance at p < 0.05, 0.01, 0.001, 0.0001 respectively; details: for Observed tremor score, significance vs harmaline + vehicle: I.P.
Excerpt: (§1) The following study was designed to assess the drug substance (DS) efficacy in the rat model of essential tremor. Synthetic CBD (sCBD I.P.) and DS I.P. and DS. P.O and compared observing tremor score, motion power percentage (MPP), tremor index (TI), number of tremors, total time spent in tremor, and average tremor length.
(§2) The results are summarized in Tables J-M. All comparisons were made to the harmaline+vehicle group within each study.

[2] = test system: rat model of essential tremor; experiment: Harmaline rat model of essential tremor, tremor plate: motion power percentage, tremor index, number of tremors, time in tremor, tremor length (Example 4); parameters: key to Motion Power Percentage, significance vs harmaline + vehicle / Number of tremors, significance vs harmaline + vehicle / Total time in tremor, significance vs harmaline + vehicle / Average tremor length, significance vs harmaline + vehicle: ns = not significant; *, **, ***, **** = statistical significance at p < 0.05, 0.01, 0.001, 0.0001 respectively; *, **, ***, **** = statistical significance at p < 0.05, 0.01, 0.001, 0.0001 respectively; *, **, ***, **** = statistical significance at p < 0.05, 0.01, 0.001, 0.0001 respectively; *, **, ***, **** = statistical significance at p < 0.05, 0.01, 0.001, 0.0001 respectively; details: for Average tremor length, significance vs harmaline + vehicle / Number of tremors, significance vs harmaline + vehicle / Total time in tremor, significance vs harmaline + vehicle / Motion Power Percentage, significance vs harmaline + vehicle: I.P.
Excerpt: as §1, §2

[3] = test system: valproic acid-induced autism spectrum disorder (ASD) mouse model; experiment: Valproic acid-induced ASD model, autism-like behaviors, DS vs sCBD and risperidone (Example 6, Table P); parameters: key to Adult open field hyperactivity (spontaneous LMA on day 1) / Adult open field hyperactivity (LMA on day 2) / Adult marble burying / Adult grooming / Juvenile vocalisation: +: improvement; Ø: no change; −: not tested
Excerpt: (§3) The main objective of the following study was to assess the effect of the drug substance (DS) of Example 1 in ameliorating autism-like behavior in valproic acid-induced autism spectrum disorder (ASD) mouse model (FIGS. 19A-B).

[4] = test system: valproic acid-induced autism spectrum disorder (ASD) mouse model; experiment: Valproic acid-induced ASD model, social behavior (Example 6, Table P); parameters: key: +: improvement; Ø: no change; −: not tested
Excerpt: as §3

[5] = test system: valproic acid-induced autism spectrum disorder (ASD) mouse model; experiment: Valproic acid-induced ASD model, bottle-brush test (irritability) (Example 6, Table P); parameters: key: +: improvement; Ø: no change; −: not tested
Excerpt: as §3

## C=C(C)[C@@H]1CCC(C)=C[C@H]1c1c(O)cc(CCCCC)cc1O [sCBD, 2-[(1R,6R)-3-Methyl-6-(1-methylethenyl)-2-cyclohexen-1-yl]-5-pentyl-1,3-benzenediol]
[1]; DS oral and intraperitoneal, sCBD i.p.
  Minimum dose (as CBD) decreasing the observed tremor score: 27 mg/kg
[1]; dose 9.1 mg/kg, 20 min
  Observed tremor score, significance vs harmaline + vehicle: ns
[1]; dose 9.1 mg/kg, 40 min
  Observed tremor score, significance vs harmaline + vehicle: ns
[1]; dose 9.1 mg/kg, 60 min
  Observed tremor score, significance vs harmaline + vehicle: ns
[1]; dose 27.3 mg/kg, 20 min
  Observed tremor score, significance vs harmaline + vehicle: ns
[1]; dose 27.3 mg/kg, 40 min
  Observed tremor score, significance vs harmaline + vehicle: * (*, **, ***, **** = statistical significance at p < 0.05, 0.01, 0.001, 0.0001 respectively)
[1]; dose 27.3 mg/kg, 60 min
  Observed tremor score, significance vs harmaline + vehicle: * (*, **, ***, **** = statistical significance at p < 0.05, 0.01, 0.001, 0.0001 respectively)
[1]; dose 54.7 mg/kg, 20 min
  Observed tremor score, significance vs harmaline + vehicle: ** (*, **, ***, **** = statistical significance at p < 0.05, 0.01, 0.001, 0.0001 respectively)
[1]; dose 54.7 mg/kg, 40 min
  Observed tremor score, significance vs harmaline + vehicle: * (*, **, ***, **** = statistical significance at p < 0.05, 0.01, 0.001, 0.0001 respectively)
[1]; dose 54.7 mg/kg, 60 min
  Observed tremor score, significance vs harmaline + vehicle: * (*, **, ***, **** = statistical significance at p < 0.05, 0.01, 0.001, 0.0001 respectively)
[1]; dose 91.1 mg/kg, 20 min
  Observed tremor score, significance vs harmaline + vehicle: * (*, **, ***, **** = statistical significance at p < 0.05, 0.01, 0.001, 0.0001 respectively)
[1]; dose 91.1 mg/kg, 40 min
  Observed tremor score, significance vs harmaline + vehicle: ns
[1]; dose 91.1 mg/kg, 60 min
  Observed tremor score, significance vs harmaline + vehicle: ns
[2]; dose 9.1 mg/kg
  Average tremor length, significance vs harmaline + vehicle: ns
  Number of tremors, significance vs harmaline + vehicle: ns
  Total time in tremor, significance vs harmaline + vehicle: ns
[2]; dose 9.1 mg/kg, 20 min
  Motion Power Percentage, significance vs harmaline + vehicle: ns
[2]; dose 9.1 mg/kg, 40 min
  Motion Power Percentage, significance vs harmaline + vehicle: ns
[2]; dose 9.1 mg/kg, 60 min
  Motion Power Percentage, significance vs harmaline + vehicle: ns
[2]; dose 27.3 mg/kg
  Average tremor length, significance vs harmaline + vehicle: ns
  Number of tremors, significance vs harmaline + vehicle: ns
  Total time in tremor, significance vs harmaline + vehicle: ns
[2]; dose 27.3 mg/kg, 20 min
  Motion Power Percentage, significance vs harmaline + vehicle: ns
[2]; dose 27.3 mg/kg, 40 min
  Motion Power Percentage, significance vs harmaline + vehicle: ns
[2]; dose 27.3 mg/kg, 60 min
  Motion Power Percentage, significance vs harmaline + vehicle: ns
[2]; dose 54.7 mg/kg
  Average tremor length, significance vs harmaline + vehicle: ns
  Number of tremors, significance vs harmaline + vehicle: ns
  Total time in tremor, significance vs harmaline + vehicle: ns
[2]; dose 54.7 mg/kg, 20 min
  Motion Power Percentage, significance vs harmaline + vehicle: ns
[2]; dose 54.7 mg/kg, 40 min
  Motion Power Percentage, significance vs harmaline + vehicle: ns
[2]; dose 54.7 mg/kg, 60 min
  Motion Power Percentage, significance vs harmaline + vehicle: ns
[2]; dose 91.1 mg/kg
  Average tremor length, significance vs harmaline + vehicle: ns
  Number of tremors, significance vs harmaline + vehicle: ns
  Total time in tremor, significance vs harmaline + vehicle: ns
[2]; dose 91.1 mg/kg, 20 min
  Motion Power Percentage, significance vs harmaline + vehicle: ns
[2]; dose 91.1 mg/kg, 40 min
  Motion Power Percentage, significance vs harmaline + vehicle: ns
[2]; dose 91.1 mg/kg, 60 min
  Motion Power Percentage, significance vs harmaline + vehicle: * (*, **, ***, **** = statistical significance at p < 0.05, 0.01, 0.001, 0.0001 respectively)
[2]; intraperitoneal, sCBD only at one time point (60 min)
  Dose (as CBD) from which MPP and TI were significantly reduced: 91 mg/kg
[3]; 9.21 mg/kg I.P.
  Adult grooming: +
  Adult marble burying: Ø
  Adult open field hyperactivity (LMA on day 2): Ø
  Adult open field hyperactivity (spontaneous LMA on day 1): +
[3]; 27.63 mg/kg I.P.
  Adult grooming: +
  Adult marble burying: +
  Adult open field hyperactivity (LMA on day 2): +
  Adult open field hyperactivity (spontaneous LMA on day 1): +
[3]; 92.11 mg/kg I.P.
  Adult grooming: +
  Adult marble burying: +
  Adult open field hyperactivity (LMA on day 2): +
  Adult open field hyperactivity (spontaneous LMA on day 1): +
  Juvenile vocalisation: +
[3]; i.p.
  minimum effective dose in social behavior and after the bottle-brush test (irritability): 92.11 mg/kg
[4]; 9.21 mg/kg I.P.
  Adult active social behavior: Ø
  Juvenile play behavior: Ø
[4]; 27.63 mg/kg I.P.
  Adult active social behavior: Ø
  Juvenile play behavior: Ø
[4]; 92.11 mg/kg I.P.
  Adult active social behavior: +
  Juvenile play behavior: +
[5]; 9.21 mg/kg I.P.
  Adult bottle brush irritability test: Ø
  Juvenile bottle brush irritability test: Ø
[5]; 27.63 mg/kg I.P.
  Adult bottle brush irritability test: Ø
  Juvenile bottle brush irritability test: +
[5]; 92.11 mg/kg I.P.
  Adult bottle brush irritability test: +
  Juvenile bottle brush irritability test: +
